Key:
[1] = Accelerated stability of Cmpd. A in solvents at 50° C.; assay type: physicochemical
Source text: An important aspect of the invention is to provide a multiple-use container comprising a topical composition of the invention, from which accurate single dose aliquots of the long lasting topical formulations may be administered. The formulation must remain stable with repetitive exposure to the outside environment, particularly oxygen and water. This embodiment may be particularly useful with the very long lasting formulations of the invention that require administration to an animal infrequently, such as once every 3-6 months, or similar. Some solvents such as ethers (including DMI, Transcutol® and the like) give rise to peroxides, which then yield ketones and aldehydes that may be further degraded to acids. The presence of acids may contribute to the degradation of acid hydrolysis-susceptible molecules, including isoxazoline active agents. Thus, formulation stability is particularly important for the multi-dose container application, where the formulations can be exposed to oxygen and water during multiple rounds of opening and closing. […]

Haematobia irritans = assay: Pour-on efficacy against Haematobia irritans (horn fly) in cattle (Example 14); assay type: in vivo; settings: Group 2: pour-on 10% in DES, 1 ml/10 kg
Rhipicephalus sanguineus = assay: Spot-on efficacy against Rhipicephalus sanguineus ticks in dogs, three DES formulations (Example 6); assay type: in vivo; settings: for % Reduction: 48 h count
Description: A further study was conducted to examine the efficacy of a topical formulations comprising Compound A in three different formulations containing DES against ticks in dogs. Twenty-four beagles were studied to determine the effectiveness against induced infestations of Rhipicephalus sanguineus of spot-on formulations comprising Cmpd. A in different carriers administered at 4.0 mg/kg to dogs.
Treatment Group 1 dogs were treated with a placebo solution. Treatment Group 2 was treated with a formulation comprising 6% (w/v) Cmpd. A in DES; Treatment Group 3 were treated with a composition comprising 6% (w/v) Cmpd. A in 40% DES/DMI; and Treatment Group 4 were treated with a formulation comprising 6% (w/v) Cmpd. A in DES with 30% Capryol 90. All dogs were treated once topically on Day 0. Topical solutions were applied by parting the hair and applying the solution from a syringe directly onto the skin in a single spot on the midline of the neck between the base of the skull and the shoulder blades.
All dogs were infested with approximately 50 R. sanguineus on Days −1, 7, 14, 21, 28, 35 and 42. Ticks were counted upon removal from dogs on Days 2, 9, 16, 23, 30, 37, and 44. All ticks were counted upon removal at 48 (±3) hours post treatment or infestation.
The percent efficacies of the treated groups compared to the untreated control group were determined for the 48 hour post-treatment/infestation counts. Treatment Group 3 maintained ≥90% efficacy 48 hours after infestation at every sampling time from Day 9 through Day 44. Treatment Group 2 was able to maintain at least 90% efficacy 48 hours after infestation throughout the six weeks of the study.

Ctenocephalides felis = assay: Spot-on efficacy against Ctenocephalides felis fleas on dogs, 40% DES/DMI (Example 5); assay type: in vivo; settings: 4.0 mg/kg
Description: The efficacy of a formulation comprising an isoxazoline compound (Cmpd. A) in a carrier comprising 40% DES/DMI against Ctenocephalides felis fleas and Rhipicephalus sanguineus ticks in Dogs was studied. […] Three treatment groups containing three dogs each were evaluated. All dogs were treated once topically on Day 0 by parting the hair and applying the solution from a syringe directly onto the skin in a single spot on the midline of the neck between the base of the skull and the shoulder blades.
Treatment Group 1 was a placebo control and received 0.067 mL/kg of body weight. Treatment Group 2 was administered a topical spot-on formulation comprising 6.0% (w/v) Cmpd. A in 40% DES/DMI to deliver a dose of 4.0 mg/kg body weight. Treatment Group 3 was administered a topical spot-on formulation comprising 12% (w/v) Cmpd. A in 40% DES/DMI to deliver a dose of 4.0 mg/kg body weight.
All dogs were infested with approximately 100 C. felis on Days −1, 7, 14, 21, 28, 35 and 42. Fleas were counted upon removal from dogs approximately 24 hours post infestation on Days 1, 8, 15, 22, 29, 36 and 43. The % reduction (efficacy) of each Treatment Group over time is listed in Tables 6A, 6B and 7, respectively.

O=C(CNC(=O)c1ccc(C2=NOC(c3cc(Cl)cc(C(F)(F)F)c3)(C(F)(F)F)C2)c2ccccc12)NCC(F)(F)F (centres unmarked) [Compound A, 4-[5-[3-chloro-5-(trifluoromethyl)phenyl]-4,5-dihydro-5-(trifluoromethyl)-3-isoxazolyl]-N-[2-oxo-2-[(2,2,2-trifluoroethyl)amino]ethyl]-1-naphthalanecarboxamide]
change in assay, accelerated stability study ([1]; 12% (w/v) solution in DMI, eleven week, 50° C., clear glass containers): no significant change in assay | stability in solvents ([1]; DES, DIPA, DMI, triacetin, GF and propylene carbonate, 50° C. in glass bottles): stable | % Reduction (Haematobia irritans; Day 35 (5 h)): 42.6% | % Reduction (Haematobia irritans; Day 36 (24 h)): 90.4% | % Reduction (Rhipicephalus sanguineus; Group 2: 6% in DES, 4.0 mg/kg, Day 2): 93.2% | % Reduction (Rhipicephalus sanguineus; Group 2: 6% in DES, 4.0 mg/kg, Day 9): 100.0% | % Reduction (Rhipicephalus sanguineus; Group 2: 6% in DES, 4.0 mg/kg, Day 16): 100.0% | % Reduction (Rhipicephalus sanguineus; Group 2: 6% in DES, 4.0 mg/kg, Day 23): 100.0% | % Reduction (Rhipicephalus sanguineus; Group 2: 6% in DES, 4.0 mg/kg, Day 30): 97.8% | % Reduction (Rhipicephalus sanguineus; Group 2: 6% in DES, 4.0 mg/kg, Day 37): 95.3% | % Reduction (Rhipicephalus sanguineus; Group 2: 6% in DES, 4.0 mg/kg, Day 44): 97.5% | % Reduction (Rhipicephalus sanguineus; Group 3: 6% in 40% DES/DMI, 4.0 mg/kg, Day 2): 72.8% | % Reduction (Rhipicephalus sanguineus; Group 3: 6% in 40% DES/DMI, 4.0 mg/kg, Day 9): 100.0% | % Reduction (Rhipicephalus sanguineus; Group 3: 6% in 40% DES/DMI, 4.0 mg/kg, Day 16): 100.0% | % Reduction (Rhipicephalus sanguineus; Group 3: 6% in 40% DES/DMI, 4.0 mg/kg, Day 23): 100.0% | % Reduction (Rhipicephalus sanguineus; Group 3: 6% in 40% DES/DMI, 4.0 mg/kg, Day 30): 100.0% | % Reduction (Rhipicephalus sanguineus; Group 3: 6% in 40% DES/DMI, 4.0 mg/kg, Day 37): 93.5% | % Reduction (Rhipicephalus sanguineus; Group 3: 6% in 40% DES/DMI, 4.0 mg/kg, Day 44): 82.9% | % Reduction (Rhipicephalus sanguineus; Group 4: 6% in DES with 30% Capryol 90, 4.0 mg/kg, Day 2): 97.2% | % Reduction (Rhipicephalus sanguineus; Group 4: 6% in DES with 30% Capryol 90, 4.0 mg/kg, Day 9): 100.0% | % Reduction (Rhipicephalus sanguineus; Group 4: 6% in DES with 30% Capryol 90, 4.0 mg/kg, Day 16): 100.0% | % Reduction (Rhipicephalus sanguineus; Group 4: 6% in DES with 30% Capryol 90, 4.0 mg/kg, Day 23): 100.0% | % Reduction (Rhipicephalus sanguineus; Group 4: 6% in DES with 30% Capryol 90, 4.0 mg/kg, Day 30): 98.4% | % Reduction (Rhipicephalus sanguineus; Group 4: 6% in DES with 30% Capryol 90, 4.0 mg/kg, Day 37): 96.1% | % Reduction (Rhipicephalus sanguineus; Group 4: 6% in DES with 30% Capryol 90, 4.0 mg/kg, Day 44): 78.1% | efficacy 48 hours after infestation (Rhipicephalus sanguineus; Treatment Group 2, throughout the six weeks of the study): ≥ 90% | efficacy 48 hours after infestation (Rhipicephalus sanguineus; Treatment Group 3, Day 9 through Day 44): ≥ 90% | % Reduction (Ctenocephalides felis; Group 2: 6.0% in 40% DES/DMI, Day 1): 100.0% | % Reduction (Ctenocephalides felis; Group 2: 6.0% in 40% DES/DMI, Day 8): 100.0% | % Reduction (Ctenocephalides felis; Group 2: 6.0% in 40% DES/DMI, Day 15): 100.0% | % Reduction (Ctenocephalides felis; Group 2: 6.0% in 40% DES/DMI, Day 22): 100.0% | % Reduction (Ctenocephalides felis; Group 2: 6.0% in 40% DES/DMI, Day 29): 100.0% | % Reduction (Ctenocephalides felis; Group 2: 6.0% in 40% DES/DMI, Day 36): 100.0% | % Reduction (Ctenocephalides felis; Group 2: 6.0% in 40% DES/DMI, Day 43): 99.2% | % Reduction (Ctenocephalides felis; Group 3: 12% in 40% DES/DMI, Day 1): 100.0% | % Reduction (Ctenocephalides felis; Group 3: 12% in 40% DES/DMI, Day 8): 100.0% | % Reduction (Ctenocephalides felis; Group 3: 12% in 40% DES/DMI, Day 15): 100.0% | % Reduction (Ctenocephalides felis; Group 3: 12% in 40% DES/DMI, Day 22): 100.0% | % Reduction (Ctenocephalides felis; Group 3: 12% in 40% DES/DMI, Day 29): 100.0% | % Reduction (Ctenocephalides felis; Group 3: 12% in 40% DES/DMI, Day 36): 100.0% | % Reduction (Ctenocephalides felis; Group 3: 12% in 40% DES/DMI, Day 43): 100.0%

Source: patent US11464763B2, “Parasiticidal compositions comprising an isoxazoline active agent, methods and uses thereof” (BOEHRINGER INGELHEIM ANIMAL HEALTH USA INC., priority 2011, dated 2022)
